Measurements reported in paper PMC7661526, “Antibiofilm effects of N,O-acetals derived from 2-amino-1,4-naphthoquinone are associated with downregulation of important global virulence regulators in methicillin-resistant Staphylococcus aureus” (Scientific Reports, 2020).
≈ marks a conversion by molar mass, not a printed value. Read-outs that look alike come from different tables or passages of the source.

Key:
MRSA BEC (BMB9393) = test: microbe, parasite or virus in culture; assay type: cell-based, Staphylococcus aureus
Description: (§1) For biofilm production, tryptic soy broth (TSB; BD, Franklin Lakes, NJ, USA) was supplemented with 1% (w/v) glucose (TSB-Glu). Tryptic soy agar (TSA; BD) was used for bacterial growth. The Mueller-Hinton broth (MHB; BD) and Mueller-Hinton agar (MHA; BD) was used for susceptibility tests. All strains were maintained in 10% (v/v) glycerol stocks and stored at − 80 °C.
(§2) The derivatives were also analyzed quantitatively using microdilution assays in 96-well inert polystyrene microtiter plates (Nuclon; Nalge Nunc International, Rochester, NY, USA) to determine the minimal inhibitory concentration (MIC)[14]. Biological control, as well as growth conditions, were performed following CLSI recommendation[15],[16]. […] Controls were also performed using 2% (v/v) DMSO only.

S. aureus ATCC 25923 [1] = test: MIC, broth microdilution; assay type: cell-based, Staphylococcus aureus
From the text: (§3) Strain representatives of six globally spread clones/lineages of MRSA were used in this study to test the antimicrobial activity of the N,O-acetal derivatives against MRSA: NY/Japan-USA100/ST5-SCCmecII (strain CR15-071), USA300/ST8-SCCmecIV (strain USA300-0114), USA400/ST1-SCCmecIV (strain USA400-0051), Brazilian epidemic clone-BEC/ST239-SCCmecIII (strain BMB9393), pediatric clone-USA800/ST5-SCCmecIV (strain USA800-0179), and OSPC-USA1100/ST30-SCCmecIV (strain 07-040). The S. aureus ATCC 25923 was used as a control for the experiment of drug susceptibility. […] For biofilm production, tryptic soy broth (TSB; BD, Franklin Lakes, NJ, USA) was supplemented with 1% (w/v) glucose (TSB-Glu). Tryptic soy agar (TSA; BD) was used for bacterial growth. The Mueller-Hinton broth (MHB; BD) and Mueller-Hinton agar (MHA; BD) was used for susceptibility tests. All strains were maintained in 10% (v/v) glycerol stocks and stored at − 80 °C.
as §2, with “The antibacterial activity of 6a and its derivatives 7a, 7b, and 7c was tested as previously described using paper disks impregnated with each compound[13]. The” for “The”

[2] = system: MRSA ST30-SCCmecIV (USA1100); test: Disk diffusion test; assay type: cell-based, Staphylococcus aureus
Vero cell line = test: Cytotoxicity assay (MTT); settings: Vero cells, 24 h, MTT
Description: (§4) Plates were incubated for 1 h, the supernatant again removed, and 200 µL dimethyl sulfoxide (DMSO) were added to each well to dissolve the formazan crystals for 10 min. Absorbance was measured at 570 nm using an ELISA reader (Thermo Plate, TP-READER, Thermo Fisher Scientific). […] The selectivity index (SI) was calculated as follows: SI (µg/mL) = CC50/MIC[17]. Three independent experiments were performed in triplicate. Controls were performed using 2% (v/v) DMSO only.

[3] = system: MRSA ST5-SCCmecII (USA100); test: Disk diffusion test; assay type: cell-based, Staphylococcus aureus
[4] = system: MRSA ST8-SCCmecIV (USA300); test: Disk diffusion test; assay type: cell-based, Staphylococcus aureus
human erythrocytes = test: Hemocompatibility assay; settings: highest concentration evaluated (300 µg/mL), 3 h at 37 °C
Description: (§5) Erythrocytes were collected from three human volunteers in a citrate tube and washed three times (3×) with PBS (pH 7.4). All derivatives were incubated with the PBS-erythrocyte suspension for 3 h at 37 °C. The hemolysis with the release of hemoglobin was quantified by the spectrophotometric reading of the supernatant at 545 nm. Hemolysis less than 10% represented hemocompatibility and non-toxicity against erythrocyte membranes. For the positive control, the human erythrocytes were lysed with 1% (v/v) Triton X-100. The negative control was performed with 1% (v/v) DMSO only (final concentration). […] All methods were carried out in accordance with relevant guidelines and regulations. In addition, informed consent was obtained from all volunteers. Three independent experiments were performed in triplicate.

S. aureus ATCC 25923 [5] = test: Disk diffusion test; assay type: cell-based, Staphylococcus aureus
From the text: as §3
as §2, with “The antibacterial activity of 6a and its derivatives 7a, 7b, and 7c was tested as previously described using paper disks impregnated with each compound[13]. The” for “The”

[6] = system: MRSA strain BMB9393 biofilm; test: Biofilm development on polystyrene, crystal violet; assay type: cell-based, Staphylococcus aureus; settings: 1/4MIC (6a 32 µg/mL, 7a 64 µg/mL, vancomycin 0.5 µg/mL); strain BMB9393
Description: Biofilms were formed on polystyrene surfaces using the BEC representative, strain BMB9393. […] The same volume of the bacterial culture in TSB-Glu (37 °C/18 h; at 250 rpm) diluted 1/100 in the same broth was added to the wells. After incubation (37 °C/24 h), supernatants were gently removed, rinsed with distilled water, and treated with crystal violet solution as described. […] Eight independent tests with three replicates each were performed. Controls were inoculated with the same bacterial inoculum but using only TSB-Glu with 2% (v/v) DMSO, final concentration.

[7] = system: MRSA (ST1-SCCmecIV) (USA400); test: Disk diffusion test; assay type: cell-based, Staphylococcus aureus
[8] = system: MRSA ST239-SCCmecIII (BMB9393); test: Disk diffusion test; assay type: cell-based, Staphylococcus aureus
[9] = system: MRSA ST5-SCCmecIV (USA800); test: Disk diffusion test; assay type: cell-based, Staphylococcus aureus
[10] = system: MRSA USA300 (USA300-0114); test: MIC, broth microdilution; assay type: cell-based, Staphylococcus aureus
Description: as §1, §2

[11] = system: MRSA Pediatric-USA800 (USA800-0179); test: MIC, broth microdilution; assay type: cell-based, Staphylococcus aureus
Description: as §1, §2

[12] = system: MRSA NY/Japan-USA100 (CR15-071); test: MIC, broth microdilution; assay type: cell-based, Staphylococcus aureus
Description: as §1, §2

[13] = system: MRSA USA400 (USA400-0051); test: MIC, broth microdilution; assay type: cell-based, Staphylococcus aureus
Description: as §1, §2

[14] = system: MRSA OSPC-USA1100 (07-040); test: MIC, broth microdilution; assay type: cell-based, Staphylococcus aureus
Description: as §1, §2

Cytotoxicity assay (MTT) = settings: African green monkey, Vero cell monolayers
Description: as §4

Hemocompatibility assay = settings: human, pH 7.4
Description: as §5

[15] = system: MRSA strain CR15-071 (USA100) cells persistent to vancomycin; test: Vancomycin-persistent cells, high bacterial load on TSA plates; assay type: cell-based, Staphylococcus aureus; settings: vancomycin alone, 4MIC (8 µg/mL) plates, high inoculum
Description: For this test, we choose the MRSA strain CR15-071 representative of the ST5-SCCmecII lineage (NY/Japan-USA100 clone), since this MRSA has replaced the ST239-SCCmecIII (the Brazilian clone) in this country, and is now the most frequent MRSA lineage in Brazilian hospitals. […]. The plates were incubated at 37 °C/24 h before being examined. […]. Bacterial growth was determined by removing persistent cells from the plates and determining UFC/ml. Controls were also performed using 2% (v/v) DMSO only. Three independent experiments were performed in triplicate.

[16] = Table 2, used for SI, strain not given, values of 6a-7c equal those for BEC (BMB9393)

SMILES	MIC (MRSA BEC (BMB9393); [16])	Inhibition zone [2]	Inhibition zone [3]	Inhibition zone [4]	Inhibition zone (S. aureus ATCC 25923 [5])	Effect on biofilm development [6]	Inhibition zone [7]	Inhibition zone [8]	Inhibition zone [9]	further results
COCNC1=CC(=O)c2ccccc2C1=O [7a, 2-(methoxymethyl)-amino-1,4-naphthoquinone]	256 µg/mL (≈ 1180 µM)	13±1.0 mm	12±1.0 mm	14±1.0 mm	9.7±2.0 mm	much less effective at reducing biofilm development compared with 7b or 7c	13±2.0 mm	10±1.5 mm	12±1.0 mm	MIC (MRSA BEC (BMB9393); broth microdilution, BEC (BMB9393)): 256 µg/mL (≈ 1180 µM); MIC (S. aureus ATCC 25923 [1]; control strain S. aureus ATCC 25923): 128 µg/mL (≈ 589 µM); CC50 (Vero cell line): 155.28 ± 1.03 µg/mL (≈ 715 µM); Hemolysis, maximum values (human erythrocytes): 3.10 ± 0.1%; MIC ([10]; broth microdilution, USA300 (USA300-0114)): 128 µg/mL (≈ 589 µM); MIC ([11]; broth microdilution, Pediatric-USA800 (USA800-0179)): 256 µg/mL (≈ 1180 µM); MIC ([12]; broth microdilution, NY/Japan-USA100 (CR15-071)): 256 µg/mL (≈ 1180 µM); MIC ([13]; broth microdilution, USA400 (USA400-0051)): 128 µg/mL (≈ 589 µM); MIC ([14]; broth microdilution, OSPC-USA1100 (07-040)): 256 µg/mL (≈ 1180 µM)
NC1=CC(=O)c2ccccc2C1=O [6a, 2-amino-1,4-naphthoquinone]	128 µg/mL (≈ 739 µM)	10±0.5 mm	9±1.0 mm	9±1.0 mm	9±1.4 mm	much less effective at reducing biofilm development compared with 7b or 7c	8±1.2 mm	8±2.0 mm	8±1.0 mm	MIC (MRSA BEC (BMB9393); Staphylococcus aureus, MRSA): 128 µg/mL (≈ 739 µM); MIC (S. aureus ATCC 25923 [1]; Staphylococcus aureus, ATCC25923, control strain S. aureus ATCC 25923, read-out: MIC): 32 µg/mL (≈ 185 µM); CC50 at 24 h (Cytotoxicity assay (MTT)): 97.3 ± 3.12 µg/mL (≈ 562 µM); hemolysis at 3 h, 300 µg/mL (Hemocompatibility assay; human erythrocyte suspension): 3 ± 0.9%; MIC ([10]; Staphylococcus aureus): 256 µg/mL (≈ 1480 µM); MIC ([11]; Staphylococcus aureus): 128 µg/mL (≈ 739 µM); MIC ([12]; Staphylococcus aureus): 256 µg/mL (≈ 1480 µM); MIC ([13]; Staphylococcus aureus): 128 µg/mL (≈ 739 µM); MIC ([14]; Staphylococcus aureus, MRSA): 256 µg/mL (≈ 1480 µM)
CN[C@H](CC(C)C)C(=O)N[C@H]1C(=O)N[C@@H](CC(N)=O)C(=O)N[C@H]2C(=O)N[C@H]3C(=O)N[C@H](C(=O)N[C@H](C(=O)O)c4cc(O)cc(O)c4-c4cc3ccc4O)[C@H](O)c3ccc(c(Cl)c3)Oc3cc2cc(c3O[C@@H]2O[C@H](CO)[C@@H](O)[C@H](O)[C@H]2O[C@H]2C[C@](C)(N)[C@H](O)[C@H](C)O2)Oc2ccc(cc2Cl)[C@H]1O [Vancomycin, vancomycin, reference compound]	–	16±1.5 mm	16±1.5 mm	17±1.0 mm	13±1.0 mm	not able to reduce biofilm development	16±2.0 mm	14±1.0 mm	17±1.5 mm	Refractory/persistent cells recovered [15]: 4.5 × 10^8 CFU/mL; hemolysis at 3 h (Hemocompatibility assay): 3.6 ± 0.8%
